The values below come from PMC10107428 (Chemistry (Weinheim an Der Bergstrasse, Germany), 2022).

The test addresses T1, Galectin-8 (Gal8-6FW) (Homo sapiens, UniProt O00214).
T1 sequence (O00214 1-317): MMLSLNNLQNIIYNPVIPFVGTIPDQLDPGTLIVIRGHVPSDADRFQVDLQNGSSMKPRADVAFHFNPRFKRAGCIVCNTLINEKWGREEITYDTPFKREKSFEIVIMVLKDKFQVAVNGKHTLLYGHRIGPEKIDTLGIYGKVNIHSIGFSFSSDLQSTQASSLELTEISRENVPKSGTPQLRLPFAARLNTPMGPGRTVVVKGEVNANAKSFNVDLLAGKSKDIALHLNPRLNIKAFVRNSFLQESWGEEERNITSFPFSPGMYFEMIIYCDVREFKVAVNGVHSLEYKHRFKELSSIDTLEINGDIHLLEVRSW
As to the kind of experiment: […] NMR titration. Type of test: binding.

With `OC[C@H]1O[C@@H](O[C@H]2[C@H](O)[C@@H](O)C(O)O[C@@H]2CO)[C@H](O)[C@@H](O)[C@H]1O` (stereo partly shown) [lactose], the “19F NMR titration” value was “Lactose binds to both domains of Gal8 with very similar and weak affinities”.
